# Key:
# Format in all cases: functional
# Rattus norvegicus [1] = test: Antihypertensive activity rating in conscious SHR after 6 hr post dose at 10 mg/kg (po)
# Rattus norvegicus [2] = test: Antihypertensive activity rating in conscious SHR after 24 hr post dose at 10 mg/kg (po)
# Rattus norvegicus [3] = test: Antihypertensive activity rating in conscious SHR after 3 hr post dose at 10 mg/kg (po)
# Rattus norvegicus [4] = test: Maximum percent decrease in blood pressure in SHR dosed at 10 mg/kg (hour post dose in parentheses)
# Rattus norvegicus [5] = test: Antihypertensive activity rating in conscious SHR after 1 hr post dose at 10 mg/kg (po)
# Rattus norvegicus [6] = test: Antihypertensive activity rating in conscious SHR after 6 hr post dose at 1 mg/kg (po)
# Rattus norvegicus [7] = test: Antihypertensive activity rating in conscious SHR after 24 hr post dose at 1 mg/kg (po)
# Rattus norvegicus [8] = test: Antihypertensive activity rating in conscious SHR after 24 hr post dose at 0.3 mg/kg (po)
# Rattus norvegicus [9] = test: Antihypertensive activity rating in conscious SHR after 3 h post dose at 3 mg/kg (po)
# Rattus norvegicus [10] = test: Antihypertensive activity rating in conscious SHR after 6 hr post dose at 0.3 mg/kg (po)
# Rattus norvegicus [11] = test: Maximum percent decrease in blood pressure in SHR dosed at 3 mg/kg (hour post dose in parentheses)
# Rattus norvegicus [12] = test: Antihypertensive activity rating in conscious SHR after 3 hr post dose at 1 mg/kg (po)
# Rattus norvegicus [13] = test: Maximum percent decrease in blood pressure in SHR dosed at 0.3 mg/kg (hour post dose in parentheses)
# Rattus norvegicus [14] = test: Antihypertensive activity rating in conscious SHR after 1 hr post dose at 1 mg/kg (po)
# Rattus norvegicus [15] = test: Antihypertensive activity rating in conscious SHR after 6 hr post dose at 3 mg/kg (po)
# Rattus norvegicus [16] = test: Antihypertensive activity rating in conscious SHR after 3 hr post dose at 0.3 mg/kg (po)
# Rattus norvegicus [17] = test: Antihypertensive activity rating in conscious SHR after 1 hr post dose at 3 mg/kg (po)
# Rattus norvegicus [18] = test: Maximum percent decrease in blood pressure in SHR dosed at 1 mg/kg (hour post dose in parentheses)
# Rattus norvegicus [19] = test: Antihypertensive activity rating in conscious SHR after 1 hr post dose at 0.3 mg/kg (po)
# Rattus norvegicus [20] = test: Antihypertensive activity rating in conscious SHR after 24 hr post dose at 3 mg/kg (po)
# Rattus norvegicus [21] = test: Effect on blood pressure in renal hypertensive rats dosed at 3 mg/kg after 6 h
# Rattus norvegicus [22] = test: Effect on blood pressure in renal hypertensive rats dosed at 3 mg/kg after 24 h
# Rattus norvegicus [23] = test: Effect on blood pressure in renal hypertensive rats dosed at 3 mg/kg after 3 h
# Rattus norvegicus [24] = species: Rattus norvegicus; test: Compound was tested for alpha-adrenoceptor blocking activity by its ability to antagonize norepinephrine contraction in the rat thoracic aorta; conditions: read-out: pA2 (converted)
# [25] = Potency ratio in rat thoracic aorta
# Rattus norvegicus [26] = test: Effect on blood pressure in renal hypertensive rats dosed at 10 mg/kg after 24 h
# Rattus norvegicus [27] = test: Effect on blood pressure (initial) in renal hypertensive rats dosed at 10 mg/kg
# Rattus norvegicus [28] = test: Effect on blood pressure in renal hypertensive rats dosed at 3 mg/kg after 1 h
# Rattus norvegicus [29] = test: Effect on blood pressure in renal hypertensive rats dosed at 10 mg/kg after 6 h
# Rattus norvegicus [30] = test: Effect on mean blood pressure (initial) in renal hypertensive rats dosed at 3 mg/kg
# Rattus norvegicus [31] = test: Effect on blood pressure in renal hypertensive rats dosed at 10 mg/kg after 1 h
# Rattus norvegicus [32] = test: Effect on blood pressure in renal hypertensive rats dosed at 10 mg/kg after 3 h
Compound,Activity (Rattus norvegicus [1]),Activity (Rattus norvegicus [2]),Activity (Rattus norvegicus [3]),Decrease (Rattus norvegicus [4]) [%],Activity (Rattus norvegicus [5]),Activity (Rattus norvegicus [6]),Activity (Rattus norvegicus [7]),Activity (Rattus norvegicus [9]),Decrease (Rattus norvegicus [11]) [%],Activity (Rattus norvegicus [12]),Activity (Rattus norvegicus [14]),Activity (Rattus norvegicus [15]),Activity (Rattus norvegicus [17]),Decrease (Rattus norvegicus [18]) [%],Activity (Rattus norvegicus [20]),also measured
COc1cc2nc(N3CCN(C(=O)/C=C/c4ccc(OC)c(OC)c4OC)CC3)nc(N)c2cc1OC,1,0,1,16,0,–,–,–,–,–,–,–,–,–,–,–
COc1cc2nc(N3CCN(C(=O)/C=C/c4cccc(C(F)(F)F)c4)CC3)nc(N)c2cc1OC,0,–,0,–,–,–,–,–,–,–,–,–,–,–,–,–
COc1cc2nc(N3CCN(C(=O)/C=C/c4cccs4)CC3)nc(N)c2cc1OC,–,–,–,–,–,1,0,1,24,1,1,2,2,14,0,Activity (Rattus norvegicus [8]): 0; Activity (Rattus norvegicus [10]): 1; Decrease (Rattus norvegicus [13]): 10%; Activity (Rattus norvegicus [16]): 0; Activity (Rattus norvegicus [19]): 0
COc1cc2nc(N3CCN(C(=O)/C=C/c4ccc(Cl)c(Cl)c4)CC3)nc(N)c2cc1OC,0,–,0,–,–,–,–,–,–,–,–,–,–,–,–,–
COc1cc2nc(N3CCN(C(=O)/C=C/c4ccccc4C)CC3)nc(N)c2cc1OC,2,0,2,23,–,0,0,1,18,0,1,1,1,12,0,–
COc1cc2nc(N3CCN(C(=O)/C=C/c4ccsc4)CC3)nc(N)c2cc1OC,–,–,–,–,–,1,0,1,25,1,1,1,2,19,0,Activity (Rattus norvegicus [8]): 0; Activity (Rattus norvegicus [10]): 1; Decrease (Rattus norvegicus [13]): 11%; Activity (Rattus norvegicus [16]): 1; Activity (Rattus norvegicus [19]): 1
COc1cc2nc(N3CCN(C(=O)/C=C/c4ccc(C(C)C)cc4)CC3)nc(N)c2cc1OC,0,–,0,–,–,–,–,–,–,–,–,–,–,–,–,–
COc1cc2nc(N3CCN(C(=O)/C=C/c4ccccc4)CC3)nc(N)c2cc1OC,–,–,–,–,–,1,0,1,22,1,1,1,2,14,0,Mean blood pressure (Rattus norvegicus [21]): -7.2 mmHg; Activity (Rattus norvegicus [8]): 0; Activity (Rattus norvegicus [10]): 1; Mean blood pressure (Rattus norvegicus [22]): -0.1 mmHg; Mean blood pressure (Rattus norvegicus [23]): -6.8 mmHg; Decrease (Rattus norvegicus [13]): 10%; Kb (Rattus norvegicus [24]): 0.724 nM; Ratio [25]: 0.07; Mean blood pressure (Rattus norvegicus [26]): -14.1 mmHg; Mean blood pressure (Rattus norvegicus [27]): 199 mmHg; Mean blood pressure (Rattus norvegicus [28]): -3.7 mmHg; Activity (Rattus norvegicus [16]): 0; Activity (Rattus norvegicus [19]): 0; Mean blood pressure (Rattus norvegicus [29]): -15.9 mmHg; Mean blood pressure (Rattus norvegicus [30]): 195 mmHg; Mean blood pressure (Rattus norvegicus [31]): -12.6 mmHg; Mean blood pressure (Rattus norvegicus [32]): -14.1 mmHg
COc1cc2nc(N3CCN(C(=O)/C=C/c4cccc(C)c4)CC3)nc(N)c2cc1OC,1,0,1,18,0,–,–,–,–,–,–,–,–,–,–,–
COc1cc2nc(N3CCN(C(=O)/C=C/c4ccoc4)CC3)nc(N)c2cc1OC,–,–,–,–,–,–,–,1,19,–,–,1,1,–,0,–
CO.COc1cc(/C=C/C(=O)N2CCN(c3nc(N)c4cc(OC)c(OC)cc4n3)CC2)cc(OC)c1,0,0,0,–,0,–,–,–,–,–,–,–,–,–,–,–
COc1cc2nc(N3CCN(C(=O)/C=C/c4ccc(C)o4)CC3)nc(N)c2cc1OC.Cl,1,0,2,22,1,0,0,–,–,0,0,–,–,–,–,–
COc1cc2nc(N3CCN(C(=O)/C=C/c4sccc4C)CC3)nc(N)c2cc1OC.Cl,2,1,2,25,2,1,0,–,–,1,1,–,–,10,–,–
COc1cc2nc(N3CCN(C(=O)/C(C)=C/c4ccccc4)CC3)nc(N)c2cc1OC.Cl,–,–,–,–,–,1,0,0,16,0,0,1,1,12,0,–
COc1cc2nc(N3CCN(C(=O)/C=C/c4ccc(Br)cc4)CC3)nc(N)c2cc1OC.Cl,1,0,1,12,0,–,–,–,–,–,–,–,–,–,–,–
COc1cc2nc(N3CCN(C(=O)/C=C/c4ccc(C)cc4)CC3)nc(N)c2cc1OC.Cl,–,–,–,–,–,–,–,1,10,–,–,0,0,–,0,–
COc1cc2nc(N3CCN(C(=O)/C=C/c4ccc(Cl)cc4)CC3)nc(N)c2cc1OC.Cl,1,–,0,10,–,–,–,–,–,–,–,–,–,–,–,–
CCOc1ccccc1/C=C/C(=O)N1CCN(c2nc(N)c3cc(OC)c(OC)cc3n2)CC1.Cl,–,–,0,–,0,–,–,–,–,–,–,–,–,–,–,–
COc1cc2nc(N3CCN(C(=O)/C=C/c4ccc(C)s4)CC3)nc(N)c2cc1OC.Cl,–,–,–,–,–,–,–,1,14,–,–,0,0,–,0,–
COc1cccc(/C=C/C(=O)N2CCN(c3nc(N)c4cc(OC)c(OC)cc4n3)CC2)c1.Cl,1,0,1,12,–,–,–,–,–,–,–,–,–,–,–,–
COc1cc2nc(N3CCN(C(=O)/C=C/c4ccc(Cl)o4)CC3)nc(N)c2cc1OC.Cl,–,–,–,–,–,–,–,1,17,–,–,1,1,–,0,–
COc1cc2nc(N3CCN(C(=O)/C(C)=C/c4ccco4)CC3)nc(N)c2cc1OC.Cl,–,–,–,–,–,1,0,0,16,0,0,1,1,15,0,–
COc1cc2nc(N3CCN(C(=O)/C=C/c4cccc([N+](=O)[O-])c4)CC3)nc(N)c2cc1OC.Cl,0,–,0,–,–,–,–,–,–,–,–,–,–,–,–,–
COc1ccccc1/C=C/C(=O)N1CCN(c2nc(N)c3cc(OC)c(OC)cc3n2)CC1.Cl,0,–,0,–,–,–,–,–,–,–,–,–,–,–,–,–
COc1cc2nc(N3CCN(C(=O)/C=C/c4ccc(Cl)s4)CC3)nc(N)c2cc1OC.Cl,1,–,1,12,1,–,–,–,–,–,–,–,–,–,–,–
COc1cc2nc(N3CCN(C(=O)/C(C)=C/c4cccs4)CC3)nc(N)c2cc1OC.Cl,–,–,–,–,–,0,0,1,34,1,1,1,3,14,0,–
COc1cc2nc(N3CCN(C(=O)/C=C/c4ccc(OC(C)C)cc4)CC3)nc(N)c2cc1OC.Cl,1,0,1,19,0,–,–,–,–,–,–,–,–,–,–,–
COc1ccc(/C=C/C(=O)N2CCN(c3nc(N)c4cc(OC)c(OC)cc4n3)CC2)cc1,2,0,2,23,1,1,0,1,20,1,0,2,0,15,0,–
Cc1ccc(N(CC2=NCCN2)c2cccc(O)c2)cc1 [PHENTOLAMINE],–,–,–,–,–,–,–,–,–,–,–,–,–,–,–,Kb (Rattus norvegicus [24]): 8.51 nM; Ratio [25]: 0.006

# — ChEMBL document CHEMBL1122489, “Pyrimidine derivatives. 4. Synthesis and antihypertensive activity of 4-amino-2-(4-cinnamoylpiperazino)-6,7-dimethoxyquinazoline derivatives” (J Med Chem, 1983)
